One test concerns grafts. Nature of the test: Autopsy findings and immunohistological staining of grafts excised 5 weeks after transplantation. Particulars: cell population treated with 1 μM for 12 days, compared with untreated cell population. In kind it is in vivo, mice. The text has this: The insulin-producing cell population obtained by culture in the medium for induction of differentiation containing CAS192705-79-6 in the preceding section (1) or an insulin-producing cell population obtained by culture in a medium for induction of differentiation free from CAS192705-79-6 as a comparative example was transplanted beneath the capsule of the kidney using immunodeficient NOD/SCID mice having streptozotocin-induced insulin-deficient diabetes mellitus. For follow-up after the transplantation, human C-peptide concentrations in blood and blood glucose levels were measured. The grafts were excised 5 weeks after the transplantation.
The excised grafts were fixed and dehydrated, and then, frozen sections were prepared and subjected to immunohistological staining in order to evaluate unintended cells. The cells of interest that could be expected to maturate into pancreatic islet cells in vivo were evaluated using insulin positivity (and NKX6.1 positivity) or glucagon positivity as an indicator, and unintended cells having the possibility of adversely affecting long-term graft survival of the cells of interest were evaluated using Ki67 positivity as an indicator.

The subject of test [1] is Ki67-positive cells. Nature of the test: Ki67-positive cells by flow cytometry, timing of treatment during insulin-producing cell production (Example 2). It counts as cell-based. Particulars: 1 μM, mean ± SD of three experiments, absent control 7.57 ± 1.05%. On the procedure: (§1) 1) An endocrine progenitor cell population obtained by the induction of differentiation from iPS cells were cultured for 11 days in a medium for induction of differentiation (Improved MEM/1% B27/Penicillin Streptomycin) containing differentiation factors (ALK5 inhibitor II, T3, LDN, γ-secretase inhibitor RO, and ascorbic acid) and an FGF receptor 1 inhibitor (CAS192705-79-6) to obtain an insulin-producing cell population.
(§2) 2) An endocrine progenitor cell population obtained by the induction of differentiation from iPS cells were cultured for 4 days in a medium for induction of differentiation (Improved MEM/1% B27/Penicillin Streptomycin) containing differentiation factors (ALK5 inhibitor II, T3, LDN, γ-secretase inhibitor RO, and ascorbic acid) and thereby induced to differentiate into an insulin-producing cell population. Subsequently, an FGF receptor 1 inhibitor (CAS192705-79-6, 1 μM) was added to a medium for induction of differentiation (Improved MEM/1% B27/Penicillin Streptomycin) containing differentiation factors (ALK5 inhibitor II, T3, LDN, γ-secretase inhibitor RO, and ascorbic acid), and the cells were cultured therein for 7 days.
as §2, with “3) An” for “2) An”, “for 7” for “for 4”, “for 4” for “for 7”, “days. […]” for “days.”
The number of Ki67-positive cells in the cell population obtained by each of the above methods 1), 2), and 3) was counted by flow cytometry to determine the proportion of Ki67-positive cells in each cell population.
(In general: Flow cytometry measures light scatter and fluorescence of single cells or particles in a stream.)

Test [2] has as its system insulin-positive (and NKX6.1-positive) cells. The test can be described thus: Insulin-positive (and NKX6.1-positive) cells by flow cytometry, timing of treatment (Example 2). In kind it is cell-based. Conditions: 1 μM, relative value, untreated control defined as 100%. As for the experimental part:
as §1, §2
3) An endocrine progenitor cell population obtained by the induction of differentiation from iPS cells were cultured for 7 days in a medium for induction of differentiation (Improved MEM/1% B27/Penicillin Streptomycin) containing differentiation factors (ALK5 inhibitor II, T3, LDN, γ-secretase inhibitor RO, and ascorbic acid) and thereby induced to differentiate into an insulin-producing cell population. […]
The number of insulin-positive (and NKX6.1-positive) cells in the cell population obtained by each of the above methods 1), 2), and 3) was counted by flow cytometry. The proportion of insulin-positive (and NKX6.1-positive) cells in each method was calculated as a relative value when the number of insulin-positive (and NKX6.1-positive) cells in the control cell population obtained by the above method 4) was defined as 100%.

The subject of test [3] is rat myoblasts. Conditions: cited from earlier work.
Test [4] relates to Ki67-positive cells. The test can be described thus: Ki67-positive cells by flow cytometry after 4 days of treatment with FGFR1 inhibitors at three concentrations (Example 3). It counts as cell-based. As for the experimental part: The number of Ki67-positive cells in the obtained cell population was evaluated by flow cytometry.
Test [5] concerns immunodeficient NOD/SCID mice having streptozotocin-induced insulin-deficient diabetes mellitus. The test can be described thus: Transplantation of the FGF receptor 1 inhibitor-treated insulin-producing cell population beneath the kidney capsule; human C-peptide in blood and blood glucose. In kind it is in vivo. Particulars: cell population treated with 1 μM for 12 days. On the procedure:
In the description below, the preparation of mice and the transplantation of cells were performed in accordance with known methods.
The insulin-producing cell population obtained by culture in the medium for induction of differentiation containing CAS192705-79-6 in the preceding section (1) or an insulin-producing cell population obtained by culture in a medium for induction of differentiation free from CAS192705-79-6 as a comparative example was transplanted beneath the capsule of the kidney using immunodeficient NOD/SCID mice having streptozotocin-induced insulin-deficient diabetes mellitus. For follow-up after the transplantation, human C-peptide concentrations in blood and blood glucose levels were measured. […]

In test [6] the test system is Ki67-positive cells. The test can be described thus: Ki67-positive cells by flow cytometry in the insulin-producing cell population obtained by treating an endocrine progenitor cell population for 12 days (Example 1). In kind it is cell-based, human. Conditions: 1 μM, mean ± standard deviation of five experiments, absent control 10.78 ± 4.09%. On the procedure: The induction of differentiation of the endocrine progenitor cell population into an insulin-producing cell population was carried out according to the above step 6) or the previous report (Nature Biotechnology 2014; 32: 1121-1133).
The endocrine progenitor cell population obtained by the induction of differentiation from iPS cells were cultured for 12 days in a medium for induction of differentiation (Improved MEM/1% B27/Penicillin Streptomycin) containing differentiation factors (ALK5 inhibitor II, T3, LDN, γ-secretase inhibitor RO, and ascorbic acid) and an FGF receptor 1 inhibitor (CAS192705-79-6) to obtain an insulin-producing cell population. The number of Ki67-positive cells in the obtained cell population was evaluated by flow cytometry.

In test [7] the test system is human placental blood vessels. Particulars: cited from earlier work.
The subject of test [8] is endocrine progenitor cells derived from human iPS cells. Particulars: cited from earlier work.
Test [9] deals with rat myoblasts. Particulars: cited from earlier work. The source holds these as a separate data set.
[10] abbreviates: Table 4, 0.3 μM, absent control 4.13%.
[11] abbreviates: Table 4, 1 μM, absent control 4.13%.

As to `COc1cc(OC)cc(-c2cc3cnc(N)nc3nc2NC(=O)NC(C)(C)C)c1` [CAS192705-79-6, 1-[2-amino-6-(3,5-dimethoxyphenyl)-pyrido(2,3-d)pyrimidin-7-yl]-3-tert-butylurea], in the test on grafts, the “Bloatedness of the grafts” value is “drastic inhibition of bloatedness of the grafts”. Also, the “Proportion of Ki67-positive cells” value is recorded as 0.57 ± 0.15% with Ki67-positive cells [1] (for last 4 days), 0.47 ± 0.15% in the test on Ki67-positive cells [1] (for last 7 days) and 0.57 ± 0.35% with Ki67-positive cells [1] (from start (11 days)). Further, the figures for the “Proportion of insulin-positive (and NKX6.1-positive) cells” value in test [2] (for last 4 days), in test [2] (for last 7 days) and in [2] (from start (11 days)) were 91 ± 16%, 88 ± 13% and 45 ± 15%, respectively. The “Cell proliferation caused by PDGE stimulation” value in the test with rat myoblasts [3] is “not inhibit cell proliferation caused by PDGE stimulation”. Besides, the “Proportion of Ki67-positive cells (%)” value in the test with Ki67-positive cells [4] (Table 4, 0.1 μM, absent control 4.13%) is recorded as 2.15%;; in the test with Ki67-positive cells [4] (setting [10]), 0.99%;; in the test with Ki67-positive cells [4] (setting [11]) it was 0.7%;. Moreover, the “Human C-peptide concentration in blood 4 months after transplantation” value in [5] (transplanted beneath the kidney capsule, untreated cells 1440 ± 573) is recorded as 1486 ± 305 pM. In addition, in [5] (4 months later, untreated cells 85 ± 16), the “Blood glucose level 4 months after transplantation” value is recorded as 86 ± 22 mg/dL. Besides, the “Blood glucose level at time of transplantation” value in test [5] (at time of transplantation (baseline)) stood at 516 ± 33 mg/dL. Further, in the test with Ki67-positive cells [6], the “Content percentage of Ki67-positive cells (before transplantation)” value came to 0.98 ± 0.29%. Also, in test [7], the Elongation of microvessels entry is “inhibit the elongation of microvessels”. Besides, the “Differentiation of endocrine progenitor cells” value in test [8] was “can be promoted”. In addition, the “Cell proliferation caused by bFGF stimulation” value in the test on rat myoblasts [9] is “inhibit cell proliferation caused by bFGF stimulation”.
Turning to `COCCCOc1ccnc(C[S+]([O-])c2nc3ccccc3[nH]2)c1C` (stereo not drawn) [E-3810], the “Proportion of Ki67-positive cells (%)” value is 2.74%; with Ki67-positive cells [4] (setting [10]); 1.51%; in the test on Ki67-positive cells [4] (setting [11]); 0.67%; in the test on Ki67-positive cells [4] (Table 4, 10 μM, absent control 4.13%).
`CCN(CC)CCCCNc1ncc2cc(-c3cc(OC)cc(OC)c3)c(NC(=O)NC(C)(C)C)nc2n1` [PD-173074]: the “Proportion of Ki67-positive cells (%)” value is reported as 0.7%; in the test on Ki67-positive cells [4] (Table 5, 0.1 μM, absent control 2.7%); 0.7%; with Ki67-positive cells [4] (Table 5, 1 μM, absent control 2.7%); 0.5%; in the test with Ki67-positive cells [4] (Table 5, 5 μM, absent control 2.7%).

The values above are taken from patent US20210254014A1, “GROWTH INHIBITOR” (Kyoto University, priority 2018, published 2021).
